Earlier results in patent publication US6197304A, “Whitening cosmetics containing solvent-fractionated extracts of ramulus mori extract” (priority 1997, dated 2001).
Entries after “also recorded” stand apart in the source; their conditions may differ.

Columns and labels:
tyrosinase = conditions: prior art
skin = conditions: prior art

Row | SMILES | tyrosinase inhibition / whitening activity (in words) (tyrosinase) | skin irritation (in words) (skin)
1 | O=C1O[C@H]([C@@H](O)CO)C(O)=C1O [Ascorbic acid, ascorbic acid] | relatively low activity of inhibiting tyrosinase | –
2 | O=c1cc(CO)occ1O [Comparative 3, kojic acid] | high activity; also recorded: relatively high whitening effect | –
3 | Oc1ccc(O)cc1 [Hydroquinone, hydroquinone] | – | irritates the skin strongly
